Measurements taken from the supplement of paper PMC10307832.

Columns and labels:
Test in all cases: relative viability (nuclei count vs DMSO), 5 days (fraction); higher = more cells survive
[1] = compound: CN1CCN(CC1)C2=CC(=C(C=C2)NC3=NC=C4C(=N3)N(C5=CC=CC=C5C(=O)N4C)C)OC [XMD8-85] + COc1cccc2cc(-c3nc([C@H]4CC[C@H](C(=O)O)CC4)n4ncnc(N)c34)[nH]c12 [OSI-027] (partner 0.5 µM)
Procedure, shortened: (§1)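 For relative viability, nuclei counts in treated wells were divided by those in vehicle wells. Lung cancer cell lines had been pin-tool dosed in 1536-well plates the day after seeding and cultured for 5 days, then fixed and stained in one step (final 0.05% Triton X-100, 1% formaldehyde, 1 ug/ml Hoechst) and imaged at 4×. Doses were one drug alone or a fixed anchor-drug dose plus five library-drug doses (not always all listed) in √10 steps, and values are duplicate-plate medians.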

[2] = compound: CN1CCN(CC1)C2=CC(=C(C=C2)NC3=NC=C4C(=N3)N(C5=CC=CC=C5C(=O)N4C)C)OC [XMD8-85] + CS(=O)(=O)N1CCN(Cc2cc3nc(-c4cccc5[nH]ncc45)nc(N4CCOCC4)c3s2)CC1 [Pictilisib] (partner 1 µM)
Procedure, shortened: as §1

[3] = compound: O=C(O)C(Cc1ccccc1[N+](=O)[O-])=NNc1nc(-c2ccc(Cl)c(Cl)c2)cs1 (mixture of isomers) [4EGI-1] + Cc1nc(Nc2ncc(C(=O)Nc3c(C)cccc3Cl)s2)cc(N2CCN(CCO)CC2)n1 [Dasatinib] (partner 0.075 µM)
Procedure, shortened: as §1

[4] = compound: O=C(O)C(Cc1ccccc1[N+](=O)[O-])=NNc1nc(-c2ccc(Cl)c(Cl)c2)cs1 (mixture of isomers) [4EGI-1] + CS(=O)(=O)CCNCc1ccc(-c2ccc3ncnc(Nc4ccc(OCc5cccc(F)c5)c(Cl)c4)c3c2)o1 [Lapatinib] (partner 2 µM)
Procedure, shortened: as §1

Cell Line | relative viability ([1]; first compound 0.08 µM) | relative viability ([1]; first compound 0.253 µM) | relative viability ([1]; first compound 0.8 µM) | relative viability ([1]; first compound 2.53 µM) | relative viability ([1]; first compound 8 µM) | relative viability ([2]; first compound 0.08 µM) | relative viability ([2]; first compound 0.253 µM) | relative viability ([2]; first compound 0.8 µM) | relative viability ([2]; first compound 2.53 µM) | relative viability ([2]; first compound 8 µM) | relative viability ([3]; first compound 0.5 µM) | relative viability ([3]; first compound 1.581 µM) | relative viability ([3]; first compound 5 µM) | relative viability ([3]; first compound 15.81 µM) | relative viability ([3]; first compound 50 µM) | relative viability ([4]; first compound 0.5 µM) | relative viability ([4]; first compound 1.581 µM) | relative viability ([4]; first compound 5 µM) | relative viability ([4]; first compound 15.81 µM) | relative viability ([4]; first compound 50 µM)
NCI-H358 | 0.859 | 0.848 | 0.887 | 0.92 | 0.756 | 0.353 | 0.366 | 0.359 | 0.362 | 0.304 | 0.151 | 0.16 | 0.183 | 0.139 | 0.0975 | 0.483 | 0.437 | 0.603 | 0.395 | 0.211
NCI-H460 | 0.557 | 0.626 | 0.901 | 0.731 | 0.239 | 0.341 | 0.356 | 0.405 | 0.333 | 0.156 | 0.447 |  | 0.515 | 0.307 | 0.0847 | 1.09 |  | 0.975 | 0.131 | 0.0327
NCI-H520 | 0.245 | 0.257 | 0.232 | 0.257 | 0.195 | 0.222 | 0.271 | 0.295 | 0.248 | 0.231 | 0.204 | 0.276 | 0.187 | 0.215 | 0.153 | 0.98 | 0.882 | 0.963 | 0.738 | 0.144
NCI-H596 | 0.69 | 0.918 | 0.773 | 0.795 |  | 0.392 | 0.396 | 0.359 | 0.397 | 0.354 | 0.714 | 0.566 | 0.584 | 0.582 | 0.491 | 1.07 | 1.03 | 1.23 | 0.958 | 0.609
NCI-H647 | 0.568 | 0.681 | 0.667 | 0.602 | 0.685 | 0.473 | 0.45 | 0.367 | 0.434 | 0.155 | 0.149 |  | 0.186 | 0.167 | 0.0838 | 1.03 | 0.989 | 1.08 | 0.505 | 0.124
NCI-H650 | 0.564 | 0.527 | 0.467 | 0.492 | 0.338 |  | 0.892 | 0.846 | 0.8 | 0.524 | 0.5 |  | 0.463 | 0.459 | 0.297 | 1.28 |  | 1.12 | 0.918 | 0.652
NCI-H661 | 0.636 | 0.709 | 0.775 | 0.806 | 0.515 | 0.406 | 0.419 | 0.412 | 0.366 | 0.357 | 1.2 | 0.831 | 0.785 | 0.517 | 0.262 | 0.666 | 0.46 | 0.566 | 0.43 | 0.342
NCI-H727 | 0.631 | 0.772 | 0.705 | 0.535 | 0.359 | 0.373 | 0.387 | 0.342 | 0.433 | 0.327 | 0.323 | 0.436 | 0.344 | 0.272 | 0.23 | 0.96 | 0.712 | 0.96 | 0.724 | 0.391
